# In patent US20120100109A1, “Method for increasing the replication of oncolytic HSVs in highly resistant tumor cells using mTOR pathway and PI3K inhibitors” (priority 2010, published 2012):
# Key:
# [1] = tested on: highly resistant tumor cells (EC9706, MCF-7 and Hela cells); assay: Spread and replication of Baco-1 (GFP) in highly resistant tumor cell monolayers (FIG. 3B, 3C); assay type: cell-based; details: infected cells incubated with inhibitor
# Excerpt: Because Baco-1 contains the Green Fluorescent Protein (GFP) gene, it is possible to visualize GFP expression during virus infection and thus monitor the spread of virus among tumor cells.
# The effect of PI3K inhibitor, LY294002, on the replication of Baco-1 is examined in these cells. The three highly resistant tumor cell lines are infected with Baco-1, with or without the presence of LY294002 in the medium.
# In the same experiment, three highly resistant tumor cells (EC9706, MCF-7 and Hela cells) are infected with Baco-1 at 0.01 pfu/cell and incubated without or with rapamycin at a concentration of 100 nM, or LY294002 at 50 μM concentration.
# HeLa = assay: Baco-1 virus yield with or without rapamycin, HeLa cells; assay type: cell-based; details: HeLa (cervix); Baco-1 yield, well with rapamycin / well without
# Procedure: (§1) A. EC9706 cells were either preincubated with rapamycin overnight (Pre-Inf) or incubated with the drug during the virus infection (During-Inf). They were then infected with Baco-1 at 0.1 pfu/cell and for 72 h. Fold increase in virus yield was calculated by dividing […]. […] B. MCF-7 and HeLa cells were infected with Baco-1 at 0.01 pfu/cell for 1 h. Then the cells were cultured in medium without (control) or with rapamycin at a concentration of 100 nM for 72 h before harvesting for virus titration.
# MPanc-96 = assay: Baco-1 virus yield with or without rapamycin, MPanc-96 cells; assay type: cell-based; details: MPanc-96 (pancreas); Baco-1 yield, well with rapamycin / well without
# HuH-7 = assay: Baco-1 virus yield with or without rapamycin, HuH-7 cells; assay type: cell-based; details: HuH-7 (liver); Baco-1 yield, well with rapamycin / well without
# MCF-7 = assay: Baco-1 virus yield with or without rapamycin, MCF-7 cells; assay type: cell-based, human; details: MCF-7 (breast); Baco-1 yield, well with rapamycin / well without
# Procedure: as §1
# HepG2 = assay: Baco-1 virus yield with or without rapamycin, HepG2 cells; assay type: cell-based; details: HepG2 (liver); Baco-1 yield, well with rapamycin / well without
# PANC-1 = assay: Baco-1 virus yield with or without rapamycin, PANC-1 cells; assay type: cell-based; details: PANC-1 (pancreas); Baco-1 yield, well with rapamycin / well without
# Hep3B = assay: Baco-1 virus yield with or without rapamycin, Hep3B cells; assay type: cell-based; details: Hep3B (liver); Baco-1 yield, well with rapamycin / well without
# DLD-1 = assay: Baco-1 virus yield with or without rapamycin, DLD-1 cells; assay type: cell-based; details: DLD-1 (colon); Baco-1 yield, well with rapamycin / well without
# HCT116 = assay: Baco-1 virus yield with or without rapamycin, HCT116 cells; assay type: cell-based; details: HCT116 (colon); Baco-1 yield, well with rapamycin / well without
# [2] = tested on: resistant tumor cells (EC9706, MCF-7, HeLa); assay: Baco-1 virus yield in resistant tumor cells with or without rapamycin (FIG. 2B, 2C); assay type: cell-based
# Procedure: FIG. 2. […] Virus yield, as determined by plaque assay. Values represent the mean±SD of triplicate experiments.
# as §1
# EC9706 cells [3] = assay: Yield of other HSVs (17+, FusOn-H2, ApE-Mir-3) in EC9706 cells with or without rapamycin (FIG. 4); assay type: cell-based, human; details: EC9706, 0.1 pfu/cell, rapamycin 100 nM
# Excerpt: In another preferred embodiment of the present invention the potentiating effect of rapamycin on virus replication in highly resistant tumor cells is applied to other oncolytic HSVs, including strain 17 (17^+), a wild-type HSV-1, FusOn-H2, which is constructed from an HSV-2 by mutating the N-terminal region of the ICP 10 gene (Fu, et al., A Mutant Type 2 Herpes Simplex Virus Deleted for the Protein Kinase Domain of the ICP10 Gene Is a Potent Oncolytic Virus, Mol. Ther. 2006; 13:882-90), and ApE-Mir-3, an HSV-1-based oncolytic virus in which the glycoprotein H (gH) gene is controlled by tissue-specific microRNAs (miRNAs), including let-7 and mir-122. To that end, EC9706 cells are infected with these viruses at 0.1 pfu/cell for 1 h and then cultured the cells in media with or without rapamycin at a concentration of 100 nM. […] Replication of the HSV-2-based oncolytic virus, FusOn-H2, is increased by approximately 5-fold, similar to those seen with Baco-1.
# EC9706 cells were infected with three other types of oncolytic HSVs, including FusOn-H2 (an oncolytic HSV derived from HSV-2, while Baco-1 was derived from HSV-1) and Ape-Mir3 (an oncolytic HSV specifically targets to hepatocellular carcinoma), at 0.1 pfu/cell and then incubated with medium without or with rapamycin (100 nM) for 72 h before harvesting for virus titration.
# SW480 = assay: Baco-1 virus yield with or without rapamycin, SW480 cells; assay type: cell-based; details: SW480 (colon); Baco-1 yield, well with rapamycin / well without
# MDA-MB-435 = assay: Baco-1 virus yield with or without rapamycin, MDA-MB-435 cells; assay type: cell-based; details: MDA-MB-435 (breast); Baco-1 yield, well with rapamycin / well without
# 293T = assay: Baco-1 virus yield with or without rapamycin, 293T cells; assay type: cell-based; details: 293T (kidney); Baco-1 yield, well with rapamycin / well without
# A549 = assay: Baco-1 virus yield with or without rapamycin, A549 cells; assay type: cell-based; details: A549 (lung); Baco-1 yield, well with rapamycin / well without
# MDA-MB-231 = assay: Baco-1 virus yield with or without rapamycin, MDA-MB-231 cells; assay type: cell-based; details: MDA-MB-231 (breast); Baco-1 yield, well with rapamycin / well without
# EC9706 cells [4] = assay: Baco-1 virus yield (plaque assay) with or without drug, EC9706 cells; assay type: cell-based, human
# Procedure: as §1
structure (smiles),measurement,setting,value
CC[n+]1c(/C=C/N(C)c2ccccc2)n(-c2ccccc2)c2ccc(-c3nc4ccccc4s3)cc21.[I-] [Akt Inhibitor IV],Effect on Baco-1 replication,[1],does not result in any significant increase in Baco-1 replication
CO[C@H]1C[C@@H]2CC[C@@H](C)[C@@](O)(O2)C(=O)C(=O)N2CCCC[C@H]2C(=O)O[C@H]([C@H](C)C[C@@H]2CC[C@@H](O)[C@H](OC)C2)CC(=O)[C@H](C)/C=C(\C)[C@@H](O)[C@@H](OC)C(=O)[C@H](C)C[C@H](C)/C=C/C=C/C=C/1C [rapamycin],Fold of change in virus yield,HeLa,3.0
same,Fold of change in virus yield,MPanc-96,0.55
same,Fold of change in virus yield,HuH-7,0.8
same,Fold of change in virus yield,MCF-7,4.86
same,Fold of change in virus yield,HepG2,1.04
same,Fold of change in virus yield,PANC-1,0.99
same,Fold of change in virus yield,Hep3B,1.10
same,Fold of change in virus yield,DLD-1,1.02
same,Fold of change in virus yield,HCT116,0.5
same,Fold increase in virus yield,"[2]; MCF-7 and HeLa cells, Baco-1 0.01 pfu/cell, rapamycin 100 nM, 72 h, FIG. 2B",3-5 fold
same,Virus yield in the presence of rapamycin,"[2]; resistant tumor cells, Baco-1, FIG. 2C",~5×10^6 pfu
same,Increase in replication of ApE-Mir-3,EC9706 cells [3],2.5 fold
same,Increase in replication of FusOn-H2,EC9706 cells [3],approximately 5 fold
same,Increase in virus yield of strain 17+ (wild-type HSV-1),EC9706 cells [3],more than 10 fold
same,Increase in yield of other oncolytic HSVs (pooled statement),EC9706 cells [3]; 72 h,3-10 folds
same,Fold of change in virus yield,SW480,5.31
same,Fold of change in virus yield,MDA-MB-435,0.6
same,Fold of change in virus yield,293T,8.01
same,Fold of change in virus yield,A549,0.42
same,Fold of change in virus yield,MDA-MB-231,0.87
same,Fold of change in virus yield,"EC9706 cells [4]; EC9706 (esophagus), Baco-1 yield, well with rapamycin / well without",5.98
same,Fold increase in virus yield,"EC9706 cells [4]; EC9706 cells, Baco-1 0.1 pfu/cell, 72 h, drug in the medium, FIG. 2A",~6 fold
